Experimental data: patent publication US20020090352A1, “Compositions and methods for use in modulating immune system function” (priority 2000, published 2002)

Assays:
[1] = target: T1, RARγ AF2 (Homo sapiens, UniProt P13631); details: retinoid activity, reporter cells; cited from earlier work; also: key: '+' = agonist; '(+)' = weak agonist; '−' = antagonist; '0' = absence of agonist and antagonist activities
T1 construct: expressed in transfected cells
T1 sequence (P13631 185-419 limits assumed): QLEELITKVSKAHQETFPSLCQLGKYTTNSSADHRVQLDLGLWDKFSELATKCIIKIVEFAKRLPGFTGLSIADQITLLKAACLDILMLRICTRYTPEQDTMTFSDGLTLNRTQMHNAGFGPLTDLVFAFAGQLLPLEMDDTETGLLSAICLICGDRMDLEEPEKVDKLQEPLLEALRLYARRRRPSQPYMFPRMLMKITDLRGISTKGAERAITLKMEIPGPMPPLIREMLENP

[2] = tested on: RXR AF2; details: retinoid activity, reporter cells; cited from earlier work
[3] = tested on: immature LC (Langerhans cells); experiment: Apoptosis of immature LC, flow cytometry of PI stained nuclei (sub 2N particles) / annexin V; assay type: cell-based, human
[4] = target: T2, RARβ AF2 (Homo sapiens, UniProt P10826); details: retinoid activity, reporter cells; cited from earlier work; also: key: '+' = agonist; '(+)' = weak agonist; '−' = antagonist; '0' = absence of agonist and antagonist activities
T2 construct: expressed in transfected cells
T2 sequence (P10826 183-417 limits assumed): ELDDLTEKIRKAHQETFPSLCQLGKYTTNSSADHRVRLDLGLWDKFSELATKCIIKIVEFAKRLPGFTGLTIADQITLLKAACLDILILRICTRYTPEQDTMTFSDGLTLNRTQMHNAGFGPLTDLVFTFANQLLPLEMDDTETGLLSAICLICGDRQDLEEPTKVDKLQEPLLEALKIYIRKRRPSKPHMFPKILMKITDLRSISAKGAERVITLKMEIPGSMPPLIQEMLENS

[5] = tested on: immature LC (Langerhans cells); experiment: Activation of immature LC: HLA-DR and CD86 expression by flow cytometry; assay type: cell-based, human
Protocol: Immature LC were cultured with retinol or vehicle and/or TNFα for 40 h. Cells were washed and incubated with HLA-DR-FITC and CD86-PE or isotype controls for 15 min at 4° C. 10^4 events were then analyzed with a FACScalibur (Becton Dickinson) using CellQuest software (Becton Dickinson). % are given for DRhi CD86hi cells gated as indicated. Data are representative of three experiments on different donors.
FIG. 3A: Day 6 immature LC were cultured for 40 h with TNFα and/or retinoids or vehicle as indicated. Cells were washed and stained with HLA-DR-FITC and CD86-PE or isotype controls for 15 min at 4° C. 10^4 events were then analyzed with a FACScalibur (Becton Dickinson) using CellQuest software (Becton Dickinson). Data are given for DRhi/CD86 hi cells gated as indicated, and are representative of 10 experiments on different donors.
Percentages of DRhi/CD86 hi cells are represented and results are expressed as the mean±SD of at last three experiments on different donors.
Flow Cytometry Analysis. 1×10^5 cells were incubated in 96-well plates (Becton Dickinson Labware, Franklin Lakes, N.J.) for 15 min at 4 ° C. in PBS, 2% human AB serum, and 0.01 M NaN3, with FITC-conjugated anti-DR (Immunotech, Marseille, France) and PE-conjugated CD86 (Pharmingen, San Diego, Calif.) at the appropriate concentration, or with control isotype-matched irrelevant mAbs at the same concentration. After washing, 10^4 events were analyzed with a FACScalibur (Becton Dickinson Immunocytometry Systems, Mountain View, Calif.) using CellQuest software.

[6] = target: T3, RARα AF2 (Homo sapiens, UniProt P10276); details: retinoid activity, reporter cells; cited from earlier work; also: key: '+' = agonist; '(+)' = weak agonist; '−' = antagonist; '0' = absence of agonist and antagonist activities
T3 construct: expressed in transfected cells
T3 sequence (P10276 183-417 limits assumed): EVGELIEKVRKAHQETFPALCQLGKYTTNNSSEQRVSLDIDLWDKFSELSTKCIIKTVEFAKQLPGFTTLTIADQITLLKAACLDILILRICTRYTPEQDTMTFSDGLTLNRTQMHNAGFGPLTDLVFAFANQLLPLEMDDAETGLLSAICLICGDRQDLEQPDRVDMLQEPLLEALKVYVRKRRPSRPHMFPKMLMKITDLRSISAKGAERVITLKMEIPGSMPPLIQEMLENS

CC1(C)CC=C(c2ccccc2)c2cc(/C=C/c3ccc(C(=O)O)cc3)ccc21 [Compound VII]
RARγ AF2 [1]: −
RXR AF2 [2]: 0
percentage of apoptotic (<2N) particles ([3]; 1 nM, two days in culture, mean ± SD): ≦5%
percentage of apoptotic (<2N) particles ([3]; 10 nM, two days in culture, mean ± SD): ≦5%
percentage of apoptotic (<2N) particles ([3]; 100 nM SR11237 + 1 nM ligand): ≦5%
percentage of apoptotic (<2N) particles ([3]; 100 nM SR11237 + 10 nM ligand): 5%
percentage of apoptotic (<2N) particles ([3]; 100 nM SR11237 + 100 nM ligand): 20 ± 6%
percentage of apoptotic (<2N) particles ([3]; 100 nM SR11237 + 1 μM ligand): 19 ± 7%
percentage of apoptotic (<2N) particles ([3]; 100 nM, two days in culture, mean ± SD): ≦5%
percentage of apoptotic (<2N) particles ([3]; 1 μM, two days in culture, mean ± SD): 10 ± 6%
synergy with the pan-RXR agonist SR11237 to induce LC death ([3]; result in words): synergized with the pan-RXR agonist to induce LC death
RARβ AF2 [4]: +
activation of immature LC (class II / CD86, DRhi-CD86hi) in the presence of TNFα ([5]; TNFα 1-10 ng/ml, result in words): weak effect
RARα AF2 [6]: −

Cc1ccc(S(=O)(=O)N[C@@H](Cc2ccccc2)C(=O)CCl)cc1 [TPCK]
inhibition of the increase of class II and CD86 on LCs ([5]; LCs treated with tRA and TNFα, TPCK 10 nM): 50%
toxicity on LCs ([5]; TPCK 10 nM, LCs treated with tRA and TNFα): without any evidence of toxicity

IL-1β: Human recombinant IL-1β from R&D Systems
inhibition of retinoid-induced apoptosis / cell death of immature LC ([3]; result in words): inhibited the apoptotic effect of retinoids

TNFα
inhibition of the pro-apoptotic effects of retinol ([3]; 1 ng/ml of TNFα): > 50%
percentage of apoptotic (<2N) particles ([3]; agent + Cmpd. I 1 μM, Cmpd. II 1 μM, Cmpd. VIII 1 μM, Z-Vad 50 μM, TNFα 10 ng/ml, CD40L coculture): 11 ± 1%
percentage of apoptotic (<2N) particles ([3]; agent + Compound I 100 nM + SR11237 100 nM, Cmpd. II 1 μM, Cmpd. VIII 1 μM, Z-Vad 50 μM, TNFα 10 ng/ml, CD40L coculture): 14 ± 2%
percentage of apoptotic (<2N) particles ([3]; agent + Rol 1 μM, Cmpd. VIII 1 μM, TNFα 10 ng/ml): 4.5 ± 1%
percentage of apoptotic (<2N) particles ([3]; agent + tRA 1 μM, Cmpd. II 1 μM, Cmpd. VIII 1 μM, Z-Vad 50 μM, TNFα 10 ng/ml, CD40L coculture): 8 ± 7%
percentage of apoptotic (<2N) particles ([3]; agent alone (column 0), Cmpd. II 1 μM, Cmpd. VIII 1 μM, Z-Vad 50 μM, TNFα 10 ng/ml, CD40L coculture): ≦5%
inhibition of retinoid-induced apoptosis / cell death of immature LC ([3]; result in words): inhibited the pro-apoptotic effects
